From patent US7332476B2, “Pyridyl substituted ketolide antibiotics” (Novartis AG, priority 2003, dated 2008)
Values after ≈ are worked out from the molar mass of the structure shown.

Columns and labels:
Assay in all cases: MIC, broth microdilution (NCCLS)
[1] = tested on: Streptococcus pneumoniae Stpn_49619; type: cell-based; design: MIC, strain ID M: unit not given beside the values; conditions: for MIC, strain ID M: broth microdilution
In short: (§1)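 Broth microdilution per NCCLS in cation-adjusted Mueller-Hinton broth, with 2-5% lysed horse blood added for S. pneumoniae. Inoculum 3×10^5–7×10^5 CFU/ml, 2-fold drug dilutions, 18-24 h at 35° C; S. pneumoniae under 5-10% CO2, others ambient air. MIC = lowest concentration preventing visible growth.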

[2] = tested on: Streptococcus pneumoniae Stpn_280-962; type: cell-based; design: MIC, strain ID O: unit not given beside the values; conditions: for MIC, strain ID O: broth microdilution
In short: as §1

[3] = tested on: Streptococcus pyogenes Stpy_8668; type: cell-based; design: MIC, strain ID G: unit not given beside the values; conditions: for MIC, strain ID G: broth microdilution
In short: as §1

[4] = tested on: Streptococcus pneumoniae Stpn_297-749; type: cell-based; design: MIC, strain ID N: unit not given here; conditions: for MIC, strain ID N: broth microdilution
In short: as §1

[5] = tested on: S. pneumoniae Stpn_Erm 6849; type: cell-based, Streptococcus pneumoniae; conditions: strain ID P; broth microdilution; in µg/mL (unit assumed)
In short: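 Lowest drug concentration giving no visible growth after 18-24 hours at 35° C. under 5-10% CO2 was taken as MIC. Twofold serial dilutions in CAMHB plus 2-5% lysed horse blood, final inoculum 3×10^5–7×10^5 CFU/ml, per NCCLS microdilution.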

[6] = tested on: Enterococcus faecalis Enfa_bc 11148-2; type: cell-based; conditions: in µg/mL (unit assumed); for MIC, strain ID F: broth microdilution
Experimental: (§2) Strains. The bacterial isolates listed in Table 8 were cultivated from −70° C. frozen stocks by two consecutive overnight passages (P1, P2) at 35° C. on 5% blood agar (Remel, Lenexa, Kans.). Chocolate agar (Remel) is used for Haemophilus influenzae. H. influenzae and Streptococcus pneumoniae are incubated in 5-10% CO2
(§3) Drug Stock Preparation. To determine the amount of solvent to be used to give the desired final concentration, the formula “weight obtained in mg/final concentration in mg/ml” will be used. It will give the amount of solvent in ml needed to be added to give the desired concentration. For example, if 2.5 mg/ml is the desired concentration and the weight of compound is 13.7 mg, then the amount of solvent to be added is […]. Methanol is used as the solvent to dissolve the test compounds. Further dilution of stock is done in sterile, deionized water. Drug stocks are kept frozen at −70° C., protected from light.
(§4) Susceptibility Testing. MICs are determined by the broth microdilution method in accordance with the NCCLS guidelines. In brief, organism suspensions are adjusted to a 0.5 McFarland standard to yield a final inoculum between 3×10^5 and 7×10^5 CFU/ml. Drug dilutions and inocula are made in sterile, cation adjusted Mueller-Hinton Broth (CAMHB) (Remel) for all but S. pneumoniae [CAMHB with 2-5% lysed horse blood (Remel)] and H. influenzae [Haemophilus Test Medium (Remel)]. An inoculum volume of 100 μl is added to wells containing 100 μl of broth with 2-fold serial dilutions of drug. All inoculated microdilution trays are incubated in ambient air at 35° C. for 18-24 hours, except for S. pneumoniae, and H. influenzae (both at 5-10% CO2).
(§5) Following appropriate incubation, the MIC is determined and the MIC is defined as the lowest concentration of the drug that prevented visible growth. […] Antibacterial activity of representative compounds of the invention were compared against telitromycin.

[7] = tested on: Haemophilus influenzae Hain_960820544-3; type: cell-based; conditions: in µg/mL (unit assumed); for MIC, strain ID J: broth microdilution
Experimental: as §2, §3, §4, §5

[8] = tested on: Haemophilus influenzae Hain_960730503-3; type: cell-based; conditions: in µg/mL (unit assumed); for MIC, strain ID I: broth microdilution
Experimental: as §2, §3, §4, §5

[9] = tested on: Staphylococcus aureus Stau_33591; type: cell-based; conditions: unit assumed; for MIC, strain ID B: broth microdilution
Experimental: as §2, §3, §4, §5

[10] = tested on: Haemophilus influenzae Hain_953460299-3; type: cell-based; conditions: in µg/mL (unit assumed); for MIC, strain ID K: broth microdilution
Experimental: as §2, §3, §4, §5

[11] = tested on: Haemophilus influenzae Hain_2762; type: cell-based; conditions: in µg/mL (unit assumed); for MIC, strain ID L: broth microdilution
Experimental: as §2, §3, §4, §5

[12] = tested on: Staphylococcus epidermidis Step_14990; type: cell-based; conditions: in µg/mL (unit assumed); for MIC, strain ID C: broth microdilution
In short: as §1

[13] = tested on: Haemophilus influenzae Hain_49247; type: cell-based; conditions: unit assumed; for MIC, strain ID H: broth microdilution
[14] = tested on: Staphylococcus epidermidis Step_f50654; type: cell-based; conditions: in µg/mL (unit assumed); for MIC, strain ID D: broth microdilution
In short: as §1

[15] = tested on: Staphylococcus aureus Stau_29213; type: cell-based; conditions: in µg/mL (unit assumed); for MIC, strain ID A: broth microdilution
In short: as §1

[16] = tested on: Streptococcus pneumoniae Stpn_Erm S 4297; type: cell-based; conditions: for MIC, strain ID Q: broth microdilution
In short: as §1

[17] = tested on: Enterococcus faecalis Enfa_29212; type: cell-based; conditions: for MIC, strain ID E: broth microdilution
In short: as §1

[18] = tested on: Streptococcus pneumoniae Stpn_Mef 5654; type: cell-based; conditions: Table 10, Strain ID P (Table 8): Streptococcus pneumoniae Stpn_Mef 5654; in µg/mL (unit assumed)
In short: as §1

[19] = tested on: Streptococcus pneumoniae Stpn_Mef S 3427; type: cell-based; conditions: Table 10, Strain ID Q (Table 8): Streptococcus pneumoniae Stpn_Mef S 3427; in µg/mL (unit assumed)
In short: as §1

SMILES	MIC, strain ID M [1]	MIC, strain ID O [2]	MIC, strain ID G [3]	MIC, strain ID N [4]	MIC, strain ID P [5]	MIC, strain ID F [6]	MIC, strain ID J [7]	MIC, strain ID I [8]	MIC, strain ID B [9]	MIC, strain ID K [10]	MIC, strain ID L [11]	MIC, strain ID C [12]	MIC, strain ID H [13]	MIC, strain ID D [14]	MIC, strain ID A [15]	MIC, strain ID E ([17]; in µg/mL (unit assumed))	MIC, strain ID Q ([16]; in µg/mL (unit assumed))	MIC, strain ID E [17]	other results
C=C[C@]12OC(=O)N(CCCCn3cc(-c4ccc(Cl)nc4)nc3C)[C@@H]1[C@@H](C)C(=O)[C@H](C)C[C@](C)(OC)[C@H](OC1O[C@H](C)C[C@H](N(C)C)[C@H]1O)[C@@H](C)C(=O)[C@@H](C)C(=O)O[C@@H]2CC (stereo partly shown) [XXIX]	=0.05	=0.05	=0.05	=0.05	0.78	3.13	6.25	6.25	> 50 µg/mL	12.5	1.56	0.1	6.25 µg/mL (≈ 7.16 µM)	0.2	0.2	0.1			MIC, strain ID Q [16]: =0.05
CC[C@H]1OC(=O)[C@H](C)C(=O)[C@H](C)[C@@H](OC2O[C@H](C)C[C@H](N(C)C)[C@H]2O)[C@@](C)(OC)C[C@@H](C)C(=O)[C@H](C)[C@H]2N(CCCCn3cnc(-c4ccc(Cl)nc4)c3)C(=O)O[C@]12CC (stereo partly shown) [XXI]																			MIC [18]: 0.78; MIC ([1]; Table 10, Strain ID M (Table 8): Streptococcus pneumoniae Stpn_49619): =0.05; MIC ([2]; Table 10, Strain ID O (Table 8): Streptococcus pneumoniae Stpn_280-962): =0.05; MIC ([3]; Table 10, Strain ID G (Table 8): Streptococcus pyogenes Stpy_8668): =0.05; MIC ([4]; Table 10, Strain ID N (Table 8): Streptococcus pneumoniae Stpn_297-749): =0.05; MIC ([6]; Table 10, Strain ID F (Table 8): Enterococcus faecalis Enfa_bc 11148-2): 1.56; MIC ([7]; Table 10, Strain ID J (Table 8): Haemophilus influenzae Hain_960820544-3): 6.25; MIC ([8]; Table 10, Strain ID I (Table 8): Haemophilus influenzae Hain_960730503-3): 6.25; MIC ([9]; Table 10, Strain ID B (Table 8): Staphylococcus aureus Stau_33591): > 50 µg/mL; MIC ([10]; Table 10, Strain ID K (Table 8): Haemophilus influenzae Hain_953460299-3): 6.25; MIC ([11]; Table 10, Strain ID L (Table 8): Haemophilus influenzae Hain_2762): 0.78; MIC ([12]; Table 10, Strain ID C (Table 8): Staphylococcus epidermidis Step_14990): 0.1; MIC ([13]; Table 10, Strain ID H (Table 8): Haemophilus influenzae Hain_49247): 3.13 µg/mL (≈ 3.64 µM); MIC ([14]; Table 10, Strain ID D (Table 8): Staphylococcus epidermidis Step_f50654): 0.1; MIC ([15]; Table 10, Strain ID A (Table 8): Staphylococcus aureus Stau_29213): 0.1; MIC ([16]; Table 10, Strain ID R (Table 8): Streptococcus pneumoniae Stpn_Erm S 4297, unit assumed): 0.1 µg/mL (≈ 0.116 µM); MIC ([17]; Table 10, Strain ID E (Table 8): Enterococcus faecalis Enfa_29212): =0.05; MIC [19]: 0.2
CC[C@H]1OC(=O)[C@H](C)C(=O)[C@H](C)[C@@H](OC2O[C@H](C)C[C@H](N(C)C)[C@H]2O)[C@@](C)(OC)C[C@@H](C)C(=O)[C@H](C)[C@@H]2[C@@H]1OC(=O)N2CCCCn1cnc(-c2ccc(Cl)nc2)c1 (stereo partly shown) [XXVIII]	=0.05	=0.05	=0.05	=0.05	0.78	0.4	6.25	6.25	> 50 µg/mL	12.5	1.56	0.1	6.25 µg/mL (≈ 7.51 µM)	0.2	0.2		0.1	=0.05	
C#C[C@]12OC(=O)N(CCCCn3cnc(-c4ccc(OC)nc4)c3)[C@@H]1[C@@H](C)C(=O)[C@H](C)C[C@](C)(OC)[C@H](OC1O[C@H](C)C[C@H](N(C)C)[C@H]1O)[C@@H](C)C(=O)[C@@H](C)C(=O)O[C@@H]2CC (stereo partly shown) [XXXII]	=0.05	=0.05	=0.05	=0.05	0.78	1.56	12.5	12.5	> 50 µg/mL	12.5	1.56	0.1	6.25 µg/mL (≈ 7.34 µM)	0.2	0.2	0.1	0.2		
C#C[C@]12OC(=O)N(CCCCn3cnc(-c4ccc(Cl)nc4)c3)[C@@H]1[C@@H](C)C(=O)[C@H](C)C[C@](C)(OC)[C@H](OC1O[C@H](C)C[C@H](N(C)C)[C@H]1O)[C@@H](C)C(=O)[C@@H](C)C(=O)O[C@@H]2CC (stereo partly shown) [XXXIV]	=0.05	=0.05	=0.05	=0.05	0.4	0.4	6.25	6.25	> 50 µg/mL	6.25	0.78	0.1	3.13 µg/mL (≈ 3.65 µM)	0.1	0.1		0.1	=0.05	
C=C[C@]12OC(=O)N(CCCCn3cnc(-c4cnc(Cl)c(C)c4)c3)[C@@H]1[C@@H](C)C(=O)[C@H](C)C[C@](C)(OC)[C@H](OC1O[C@H](C)C[C@H](N(C)C)[C@H]1O)[C@@H](C)C(=O)[C@@H](C)C(=O)O[C@@H]2CC (stereo partly shown) [XXXVIII]	=0.05	=0.05	=0.05	=0.05	0.2	3.13	12.5	6.25	> 50 µg/mL	12.5	1.56	0.1	3.13 µg/mL (≈ 3.59 µM)	0.4	0.1	0.1	0.2		
